pIC50, pKd: −log10 of the molar value. One block for each molecule: values may come before it.
What was measured:
PIM2 (human) [1] = target: PIM2 (human) (UniProt Q9P1W9); experiment: SelectScreen, TR FRET
PIM1 (human) [2] = target: PIM1 (human) (UniProt P11309); experiment: SelectScreen, TR FRET
PHKG1 (human) = PHKG1 (human) (UniProt Q16816); experiment: KINOMEscan competition binding; conditions: compound 10.0 µM
PDGFRA (human) = PDGFRA (human) (UniProt P16234); experiment: KINOMEscan competition binding; conditions: compound 10.0 µM
PIM2 (human) [3] = target: PIM2 (human) (UniProt Q9P1W9); experiment: KINOMEscan competition binding; conditions: compound 10.0 µM
[4] = system: KIT (human), P10721 [V559D/T670I]; experiment: KINOMEscan competition binding; conditions: compound 10.0 µM
CSNK2A2 (human) = CSNK2A2 (human) (UniProt P19784); experiment: KINOMEscan competition binding; conditions: compound 10.0 µM
FLT1 (human) = FLT1 (human) (UniProt P17948); experiment: KINOMEscan competition binding; conditions: compound 10.0 µM
[5] = system: KIT (human), P10721 [V559D]; experiment: KINOMEscan competition binding; conditions: compound 10.0 µM
STK17A (human) = STK17A (human) (UniProt Q9UEE5); experiment: KINOMEscan competition binding; conditions: compound 10.0 µM
RET (human) = RET (human) (UniProt P07949); experiment: KINOMEscan competition binding; conditions: compound 10.0 µM
HIPK1 (human) = HIPK1 (human) (UniProt Q86Z02); experiment: KINOMEscan competition binding; conditions: compound 10.0 µM
CDK11B (human) = CDK11B (human) (UniProt P21127); experiment: KINOMEscan competition binding; conditions: compound 10.0 µM
KIT (human) = KIT (human) (UniProt P10721); experiment: KINOMEscan competition binding; conditions: compound 10.0 µM
MAPK8 (human) = MAPK8 (human) (UniProt P45983); experiment: KINOMEscan competition binding; conditions: compound 10.0 µM
CDK11A (human) = CDK11A (human) (UniProt Q9UQ88); experiment: KINOMEscan competition binding; conditions: compound 10.0 µM
[6] = system: RET (human), P07949 [M918T]; experiment: KINOMEscan competition binding; conditions: compound 10.0 µM
PIM3 (human) = PIM3 (human) (UniProt Q86V86); experiment: KINOMEscan competition binding; conditions: compound 10.0 µM
DAPK1 (human) = DAPK1 (human) (UniProt P53355); experiment: KINOMEscan competition binding; conditions: compound 10.0 µM
RPS6KA1 KD2 (human) = RPS6KA1 KD2 (human) (UniProt Q15418); experiment: KINOMEscan competition binding; conditions: compound 10.0 µM
PIM1 (human) [7] = target: PIM1 (human) (UniProt P11309); experiment: KINOMEscan competition binding; conditions: compound 10.0 µM
SLK (human) = SLK (human) (UniProt Q9H2G2); experiment: KINOMEscan competition binding; conditions: compound 10.0 µM
SLK (human), sequence (Q9H2G2 whole entry, looked up): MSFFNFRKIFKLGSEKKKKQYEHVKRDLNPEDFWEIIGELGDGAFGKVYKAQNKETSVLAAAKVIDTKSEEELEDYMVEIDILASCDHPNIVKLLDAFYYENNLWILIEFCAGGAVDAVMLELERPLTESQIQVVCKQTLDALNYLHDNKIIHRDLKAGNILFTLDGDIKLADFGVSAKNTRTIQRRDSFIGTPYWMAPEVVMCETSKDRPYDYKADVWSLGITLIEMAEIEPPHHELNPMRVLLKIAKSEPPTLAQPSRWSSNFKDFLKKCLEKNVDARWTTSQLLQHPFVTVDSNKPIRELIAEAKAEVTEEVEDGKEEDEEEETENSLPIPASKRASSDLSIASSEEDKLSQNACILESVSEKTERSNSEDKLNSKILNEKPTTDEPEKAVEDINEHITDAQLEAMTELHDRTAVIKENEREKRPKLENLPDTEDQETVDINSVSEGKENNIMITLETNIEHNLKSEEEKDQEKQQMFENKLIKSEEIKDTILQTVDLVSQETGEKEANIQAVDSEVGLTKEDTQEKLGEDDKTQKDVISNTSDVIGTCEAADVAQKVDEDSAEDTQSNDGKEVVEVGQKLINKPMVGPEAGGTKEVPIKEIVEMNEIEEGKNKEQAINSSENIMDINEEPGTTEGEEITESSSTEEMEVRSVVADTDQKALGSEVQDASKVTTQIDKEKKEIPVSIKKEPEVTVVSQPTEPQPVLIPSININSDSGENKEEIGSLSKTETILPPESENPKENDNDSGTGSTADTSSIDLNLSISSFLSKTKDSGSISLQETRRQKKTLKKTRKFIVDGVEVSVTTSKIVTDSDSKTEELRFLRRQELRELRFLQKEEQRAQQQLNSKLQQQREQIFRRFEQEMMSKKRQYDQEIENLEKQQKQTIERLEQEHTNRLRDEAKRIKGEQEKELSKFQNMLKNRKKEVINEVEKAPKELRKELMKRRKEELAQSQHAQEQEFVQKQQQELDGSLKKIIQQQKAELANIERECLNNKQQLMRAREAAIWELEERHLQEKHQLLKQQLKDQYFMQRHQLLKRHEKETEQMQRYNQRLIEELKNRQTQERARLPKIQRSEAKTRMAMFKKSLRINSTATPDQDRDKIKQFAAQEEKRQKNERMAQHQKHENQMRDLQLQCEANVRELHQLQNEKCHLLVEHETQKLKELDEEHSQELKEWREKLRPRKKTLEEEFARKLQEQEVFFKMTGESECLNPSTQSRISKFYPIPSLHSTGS

STK17B (human) = STK17B (human) (UniProt O94768); experiment: KINOMEscan competition binding; conditions: compound 10.0 µM
CDC2L2 (human) = CDC2L2 (human) (UniProt Q9UQ88); experiment: KINOMEscan competition binding; conditions: compound 10.0 µM
FLT4 (human) = FLT4 (human) (UniProt P35916); experiment: KINOMEscan competition binding; conditions: compound 10.0 µM
TIE1 (human) = TIE1 (human) (UniProt P35590); experiment: KINOMEscan competition binding; conditions: compound 10.0 µM
STK24 (human) = STK24 (human) (UniProt Q9Y6E0); experiment: KINOMEscan competition binding; conditions: compound 10.0 µM
TLK1 (human) = TLK1 (human) (UniProt Q9UKI8); experiment: KINOMEscan competition binding; conditions: compound 10.0 µM
DDR2 (human) = DDR2 (human) (UniProt Q16832); experiment: KINOMEscan competition binding; conditions: compound 10.0 µM
RPS6KA2 KD2 (human) = RPS6KA2 KD2 (human) (UniProt Q15349); experiment: KINOMEscan competition binding; conditions: compound 10.0 µM
DDR1 (human) = DDR1 (human) (UniProt Q08345); experiment: KINOMEscan competition binding; conditions: compound 10.0 µM
CSNK2A1 (human) = CSNK2A1 (human) (UniProt P68400); experiment: KINOMEscan competition binding; conditions: compound 10.0 µM
PLK4 (human) = PLK4 (human) (UniProt O00444); experiment: KINOMEscan competition binding; conditions: compound 10.0 µM
MARK3 (human) = MARK3 (human) (UniProt P27448); experiment: KINOMEscan competition binding; conditions: compound 10.0 µM
RPS6KA6 KD2 (human) = RPS6KA6 KD2 (human) (UniProt Q9UK32); experiment: KINOMEscan competition binding; conditions: compound 10.0 µM
RPS6KA6 KD2 (human), sequence (Q9UK32 whole entry, looked up): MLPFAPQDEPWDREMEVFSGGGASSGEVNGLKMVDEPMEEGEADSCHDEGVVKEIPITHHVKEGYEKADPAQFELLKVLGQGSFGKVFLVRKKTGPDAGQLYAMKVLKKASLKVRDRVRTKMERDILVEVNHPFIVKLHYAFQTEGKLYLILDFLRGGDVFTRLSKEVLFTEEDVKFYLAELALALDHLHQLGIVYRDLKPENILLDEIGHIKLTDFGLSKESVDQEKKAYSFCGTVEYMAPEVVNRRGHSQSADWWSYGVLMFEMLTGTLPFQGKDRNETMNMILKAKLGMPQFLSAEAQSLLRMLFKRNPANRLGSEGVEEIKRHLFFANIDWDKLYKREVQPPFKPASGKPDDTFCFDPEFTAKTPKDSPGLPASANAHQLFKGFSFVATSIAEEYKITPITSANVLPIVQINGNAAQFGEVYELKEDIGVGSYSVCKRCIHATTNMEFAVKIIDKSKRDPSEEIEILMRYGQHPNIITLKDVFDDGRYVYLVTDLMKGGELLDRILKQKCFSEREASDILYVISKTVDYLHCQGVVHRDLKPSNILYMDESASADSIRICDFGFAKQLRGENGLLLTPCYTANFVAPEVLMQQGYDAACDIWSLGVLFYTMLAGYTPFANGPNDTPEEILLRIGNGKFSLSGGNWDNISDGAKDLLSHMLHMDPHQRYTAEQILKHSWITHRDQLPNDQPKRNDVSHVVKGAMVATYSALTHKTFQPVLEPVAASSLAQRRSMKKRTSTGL

PDGFRB (human) = PDGFRB (human) (UniProt P09619); experiment: KINOMEscan competition binding; conditions: compound 10.0 µM
KDR (human) = KDR (human) (UniProt P35968); experiment: KINOMEscan competition binding; conditions: compound 10.0 µM
STK10 (human) = STK10 (human) (UniProt O94804); experiment: KINOMEscan competition binding; conditions: compound 10.0 µM
TTK (human) [8] = target: TTK (human) (UniProt P33981); experiment: SelectScreen, TR FRET
TTK (human), sequence (P33981 whole entry, looked up): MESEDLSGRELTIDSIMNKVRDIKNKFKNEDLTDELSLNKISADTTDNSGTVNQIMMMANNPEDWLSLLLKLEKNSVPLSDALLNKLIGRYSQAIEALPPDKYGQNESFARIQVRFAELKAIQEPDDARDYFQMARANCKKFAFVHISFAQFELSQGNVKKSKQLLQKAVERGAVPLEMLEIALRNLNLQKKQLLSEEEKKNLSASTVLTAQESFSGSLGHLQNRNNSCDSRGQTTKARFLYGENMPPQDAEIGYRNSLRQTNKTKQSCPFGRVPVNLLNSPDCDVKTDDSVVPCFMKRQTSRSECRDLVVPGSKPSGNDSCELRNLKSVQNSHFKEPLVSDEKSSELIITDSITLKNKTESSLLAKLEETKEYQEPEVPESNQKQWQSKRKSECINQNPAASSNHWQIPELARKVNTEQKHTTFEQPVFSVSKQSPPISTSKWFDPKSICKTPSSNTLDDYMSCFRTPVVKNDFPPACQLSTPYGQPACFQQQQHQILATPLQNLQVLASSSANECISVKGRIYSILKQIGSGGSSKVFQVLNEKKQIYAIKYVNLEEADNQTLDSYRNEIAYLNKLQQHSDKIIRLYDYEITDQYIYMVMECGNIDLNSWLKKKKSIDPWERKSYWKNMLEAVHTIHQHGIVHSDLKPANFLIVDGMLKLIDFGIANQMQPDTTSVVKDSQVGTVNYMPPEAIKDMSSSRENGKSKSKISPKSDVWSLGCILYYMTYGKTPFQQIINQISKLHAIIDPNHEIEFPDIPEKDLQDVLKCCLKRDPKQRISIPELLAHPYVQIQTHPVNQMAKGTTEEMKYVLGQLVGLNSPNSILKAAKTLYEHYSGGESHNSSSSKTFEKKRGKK

TTK (human) [9] = target: TTK (human) (UniProt P33981); experiment: KINOMEscan competition binding
EPHA8 (human) = EPHA8 (human) (UniProt P29322); experiment: KINOMEscan competition binding; conditions: compound 10.0 µM
EPHA8 (human), sequence (P29322 whole entry, looked up): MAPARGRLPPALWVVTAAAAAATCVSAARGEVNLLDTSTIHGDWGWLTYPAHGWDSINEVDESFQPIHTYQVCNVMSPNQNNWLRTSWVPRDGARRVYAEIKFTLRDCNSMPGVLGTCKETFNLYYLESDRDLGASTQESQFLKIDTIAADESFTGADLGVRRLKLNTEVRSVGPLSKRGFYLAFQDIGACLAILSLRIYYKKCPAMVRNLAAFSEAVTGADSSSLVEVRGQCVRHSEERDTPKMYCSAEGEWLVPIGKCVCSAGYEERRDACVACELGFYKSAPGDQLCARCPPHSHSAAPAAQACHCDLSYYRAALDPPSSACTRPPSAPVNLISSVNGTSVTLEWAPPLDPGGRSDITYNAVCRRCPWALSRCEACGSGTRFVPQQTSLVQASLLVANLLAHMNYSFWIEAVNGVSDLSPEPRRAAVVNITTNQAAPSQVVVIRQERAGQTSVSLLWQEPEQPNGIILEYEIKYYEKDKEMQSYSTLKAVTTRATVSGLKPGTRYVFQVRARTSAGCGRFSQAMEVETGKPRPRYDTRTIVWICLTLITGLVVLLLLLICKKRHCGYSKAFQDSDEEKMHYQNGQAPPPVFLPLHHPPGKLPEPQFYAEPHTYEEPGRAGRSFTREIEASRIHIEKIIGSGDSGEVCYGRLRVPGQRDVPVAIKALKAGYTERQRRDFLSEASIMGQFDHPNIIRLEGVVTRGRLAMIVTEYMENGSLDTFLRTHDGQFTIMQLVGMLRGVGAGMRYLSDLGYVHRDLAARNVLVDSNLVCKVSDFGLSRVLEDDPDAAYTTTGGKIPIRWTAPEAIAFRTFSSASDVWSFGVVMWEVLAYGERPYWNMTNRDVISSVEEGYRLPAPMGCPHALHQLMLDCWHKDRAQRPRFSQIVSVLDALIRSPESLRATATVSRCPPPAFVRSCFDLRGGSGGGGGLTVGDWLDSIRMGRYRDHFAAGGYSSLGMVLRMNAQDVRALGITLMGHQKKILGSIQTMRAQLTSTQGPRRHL

PLK1 (human) = PLK1 (human) (UniProt P53350); experiment: KINOMEscan competition binding; conditions: compound 10.0 µM
PLK1 (human), sequence (P53350 whole entry, looked up): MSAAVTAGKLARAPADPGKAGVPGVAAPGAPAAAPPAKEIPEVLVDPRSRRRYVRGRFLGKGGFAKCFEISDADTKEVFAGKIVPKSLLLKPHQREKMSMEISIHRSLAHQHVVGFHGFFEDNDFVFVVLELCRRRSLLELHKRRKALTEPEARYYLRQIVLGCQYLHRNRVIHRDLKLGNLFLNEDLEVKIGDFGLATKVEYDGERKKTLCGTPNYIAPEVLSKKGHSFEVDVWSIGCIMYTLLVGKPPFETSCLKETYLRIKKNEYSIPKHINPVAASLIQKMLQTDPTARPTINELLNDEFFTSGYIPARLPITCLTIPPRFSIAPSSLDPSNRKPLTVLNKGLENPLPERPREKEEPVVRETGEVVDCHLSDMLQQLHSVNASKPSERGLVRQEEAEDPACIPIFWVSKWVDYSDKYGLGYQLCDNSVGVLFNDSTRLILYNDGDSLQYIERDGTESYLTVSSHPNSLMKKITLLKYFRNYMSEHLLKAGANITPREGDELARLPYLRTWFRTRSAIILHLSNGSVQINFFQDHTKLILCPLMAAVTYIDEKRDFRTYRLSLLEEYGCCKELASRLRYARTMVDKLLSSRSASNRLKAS

GAK (human) = GAK (human) (UniProt O14976); experiment: KINOMEscan competition binding; conditions: compound 10.0 µM

PIM1 (human), sequence (P11309 whole entry, looked up): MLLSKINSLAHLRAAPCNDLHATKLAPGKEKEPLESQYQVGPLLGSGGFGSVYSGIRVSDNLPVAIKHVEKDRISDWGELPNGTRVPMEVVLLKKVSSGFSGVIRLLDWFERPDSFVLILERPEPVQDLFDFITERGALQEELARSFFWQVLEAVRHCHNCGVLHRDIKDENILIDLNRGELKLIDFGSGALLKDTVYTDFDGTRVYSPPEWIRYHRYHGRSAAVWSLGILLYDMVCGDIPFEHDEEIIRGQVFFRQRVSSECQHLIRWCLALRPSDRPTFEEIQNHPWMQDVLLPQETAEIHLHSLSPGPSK
PIM2 (human), sequence (Q9P1W9 whole entry, looked up): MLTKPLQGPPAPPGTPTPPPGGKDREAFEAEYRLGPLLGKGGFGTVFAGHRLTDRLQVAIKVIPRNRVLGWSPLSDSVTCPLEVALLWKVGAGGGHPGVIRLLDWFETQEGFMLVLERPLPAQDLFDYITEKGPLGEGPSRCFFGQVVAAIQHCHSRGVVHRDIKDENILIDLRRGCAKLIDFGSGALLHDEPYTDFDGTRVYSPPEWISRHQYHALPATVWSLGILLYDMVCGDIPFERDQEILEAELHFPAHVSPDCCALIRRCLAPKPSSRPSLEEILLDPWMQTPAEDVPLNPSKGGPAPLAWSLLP

pIC50 (PIM2 (human) [1]): 6.09
pIC50 (PIM1 (human) [2]): 6.11
kinase still bound, per cent of control (PHKG1 (human)): 0%
kinase still bound, per cent of control (PDGFRA (human)): 0.55%
kinase still bound, per cent of control (PIM2 (human) [3]): 0.4%
kinase still bound, per cent of control [4]: 2.4%
kinase still bound, per cent of control (CSNK2A2 (human)): 6.4%
kinase still bound, per cent of control (FLT1 (human)): 12%
kinase still bound, per cent of control [5]: 1.2%
kinase still bound, per cent of control (STK17A (human)): 15%
kinase still bound, per cent of control (RET (human)): 4.6%
kinase still bound, per cent of control (HIPK1 (human)): 5.4%
kinase still bound, per cent of control (CDK11B (human)): 30%
kinase still bound, per cent of control (KIT (human)): 2.6%
kinase still bound, per cent of control (MAPK8 (human)): 32%
kinase still bound, per cent of control (CDK11A (human)): 24%
kinase still bound, per cent of control [6]: 3.9%
kinase still bound, per cent of control (PIM3 (human)): 7%
kinase still bound, per cent of control (DAPK1 (human)): 34%
kinase still bound, per cent of control (RPS6KA1 KD2 (human)): 18%
kinase still bound, per cent of control (PIM1 (human) [7]): 11%
kinase still bound, per cent of control (SLK (human)): 30%
kinase still bound, per cent of control (STK17B (human)): 0.3%
kinase still bound, per cent of control (CDC2L2 (human)): 18%
kinase still bound, per cent of control (FLT4 (human)): 5.9%
kinase still bound, per cent of control (TIE1 (human)): 5.8%
kinase still bound, per cent of control (STK24 (human)): 25%
kinase still bound, per cent of control (TLK1 (human)): 13%
kinase still bound, per cent of control (DDR2 (human)): 7.6%
kinase still bound, per cent of control (RPS6KA2 KD2 (human)): 29%
kinase still bound, per cent of control (DDR1 (human)): 0.15%
kinase still bound, per cent of control (CSNK2A1 (human)): 4.6%
kinase still bound, per cent of control (PLK4 (human)): 33%
kinase still bound, per cent of control (MARK3 (human)): 32%
kinase still bound, per cent of control (RPS6KA6 KD2 (human)): 20%
kinase still bound, per cent of control (PDGFRB (human)): 0.25%
kinase still bound, per cent of control (KDR (human)): 9%
kinase still bound, per cent of control (STK10 (human)): 0.15%
SMILES: CCN1CCN(Cc2cc(NC(=O)c3cccc4cc(-c5ccc(/C=C6\SC(=O)NC6=O)o5)ccc34)cc(C(F)(F)F)c2)CC1

pIC50 (TTK (human) [8]): 6.22
pKd (TTK (human) [9]): 6.95
kinase still bound, per cent of control (TTK (human) [9]; compound 10.0 µM): 2.4%
kinase still bound, per cent of control (EPHA8 (human)): 0%
kinase still bound, per cent of control (PLK1 (human)): 14%
kinase still bound, per cent of control (GAK (human)): 29%
SMILES: CC(C)Oc1cc(N2CCC(O)CC2)ccc1Nc1ncc2c(n1)N(C1CCCC1)CCC(=O)N2C

Source: the kinase profiling compilation of Christmann-Franck et al. (2016)
